Source: paper PMC4757417, “Functional and Structural Analysis of a β-Glucosidase Involved in β-1,2-Glucan Metabolism in Listeria innocua” (PLoS ONE, 2016)
Like-named read-outs stand apart in the source and are kept apart here.

Assays:
[1] = target: T1, Lin1840r (Listeria innocua, UniProt Q92AS9); assay: Inhibition kinetics of hydrolytic activity toward pNP-β-Glc; assay type: biochemical; conditions: substrate pNP-β-Glc
[2] = target: Aspergillus aculeatus BGL1 (AaBGL1); set-up: method as in PMID 23537284; conditions: cited from earlier work
[3] = target: T1, Lin1840r; assay: Kinetic analysis of hydrolysis of β-linked gluco-oligosaccharides and pNP-β-Glc by WT Lin1840r; assay type: biochemical; conditions: for kcat relative to that for Sop2 / kcat relative to those for Sop2 and Lam2 / kcat/Km relative to that for Sop2: WT Lin1840r; for specific activity: Lin1840r, 0.1 mM substrate at 20°C
[4] = system: Lin1840r D270A mutant; assay: Hydrolytic activity of D270A mutant toward pNP-β-Glc
[5] = system: JMB19063 (metagenomic GH3 β-glucosidase from compost); set-up: method as in PMID 23580647; conditions: 0.1 mM substrate, Cel2 at 50°C, estimated from the substrate consumption; cited from earlier work
[6] = system: Lin1840r E473A mutant; assay: Hydrolytic activity of E473A mutant toward pNP-β-Glc
[7] = system: Flavobacterium meningosepticum GH3 β-glucosidase (FmBGL); set-up: method as in PMID 11851422; conditions: cited from earlier work

T1 sequence (Q92AS9 entry or part of it): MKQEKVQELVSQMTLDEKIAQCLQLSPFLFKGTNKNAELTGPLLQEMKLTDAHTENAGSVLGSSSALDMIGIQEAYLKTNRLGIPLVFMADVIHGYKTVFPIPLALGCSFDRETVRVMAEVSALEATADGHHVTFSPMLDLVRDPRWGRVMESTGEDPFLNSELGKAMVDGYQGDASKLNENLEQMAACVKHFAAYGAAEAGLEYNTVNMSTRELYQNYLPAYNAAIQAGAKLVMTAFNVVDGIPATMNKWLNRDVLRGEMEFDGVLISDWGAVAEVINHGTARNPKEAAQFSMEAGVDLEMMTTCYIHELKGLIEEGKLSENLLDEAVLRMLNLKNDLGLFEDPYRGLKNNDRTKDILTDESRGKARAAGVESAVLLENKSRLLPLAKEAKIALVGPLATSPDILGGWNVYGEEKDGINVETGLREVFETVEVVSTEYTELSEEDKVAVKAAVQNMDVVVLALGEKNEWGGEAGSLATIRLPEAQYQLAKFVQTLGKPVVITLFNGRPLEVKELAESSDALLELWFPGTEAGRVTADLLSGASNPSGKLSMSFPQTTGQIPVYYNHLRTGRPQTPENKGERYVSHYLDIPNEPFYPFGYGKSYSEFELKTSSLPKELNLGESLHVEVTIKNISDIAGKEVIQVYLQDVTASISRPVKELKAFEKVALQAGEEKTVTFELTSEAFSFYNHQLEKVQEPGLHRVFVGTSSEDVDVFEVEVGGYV

## OC[C@H]1NC[C@H](O)[C@@H](O)[C@@H]1O [DNJ, 1-deoxynojirimycin]
[1]; Ki
  Ki: 290 µM
[2]
  Ki: 2.4 µM

## OC[C@H]1CNC[C@@H](O)[C@@H]1O [IFG, isofagomine D-tartrate]
[1]; read-out: Ki
  Ki: 4.1 µM
[2]
  Ki: 14 µM

## OC[C@H]1O[C@@H](O[C@H]2[C@H](O[C@H]3[C@H](O[C@H]4C(O)O[C@H](CO)[C@@H](O)[C@@H]4O)O[C@H](CO)[C@@H](O)[C@@H]3O)O[C@H](CO)[C@@H](O)[C@@H]2O)[C@H](O)[C@@H](O)[C@@H]1O (stereo partly shown) [Sop4]
[3]
  kcat relative to that for Sop2: less than one-tenth

## OC[C@H]1O[C@@H](O[C@H]2[C@H](O[C@H]3[C@H](O[C@H]4[C@H](O[C@H]5C(O)O[C@H](CO)[C@@H](O)[C@@H]5O)O[C@H](CO)[C@@H](O)[C@@H]4O)O[C@H](CO)[C@@H](O)[C@@H]3O)O[C@H](CO)[C@@H](O)[C@@H]2O)[C@H](O)[C@@H](O)[C@@H]1O (stereo partly shown) [Sop5]
[3]
  kcat relative to that for Sop2: less than one-tenth

## O=[N+]([O-])c1ccc(O[C@@H]2O[C@H](CO)[C@@H](O)[C@H](O)[C@H]2O)cc1 [pNP-β-Glc, p-nitrophenyl-β-D-glucopyranoside]
[4]
  hydrolytic activity: no detectable hydrolytic activity
[5]
  specific activity: 11.8 U/mg
[6]
  hydrolytic activity: no detectable hydrolytic activity
[3]
  specific activity: 1.12 U/mg
[7]
  Km: 490 µM
  kcat: 39.1 s⁻¹

## cellobiose [Cel2]
[5]
  specific activity: 0.077 U/mg
[3]
  specific activity: 8.9 × 10^−4 U/mg
  kcat relative to those for Sop2 and Lam2: less than 1%
  kcat/Km relative to that for Sop2: less than 0.05%
[7]; judged from preliminary results
  activity lower than toward pNP-β-Glc: at least 100 times

## gentiobiose [Gen2]
[3]
  kcat relative to those for Sop2 and Lam2: less than 1%
  kcat/Km relative to that for Sop2: less than 0.05%
